Experimental data reported in ChEMBL document CHEMBL2069307, “Triazolbenzo[d]thiazoles: efficient synthesis and biological evaluation as neuroprotective agents” (Bioorg Med Chem Lett, 2012).
Active and inactive are the calls of the source. The rule behind the calls is not given here.

Legend:
SH-SY5Y [1] = assay: Neuroprotective activity against serum starvation-induced cell death in human SH-SY5Y cells assessed as increase in cell viability at 10 and 20 uM after 3 days by tetrazolium reduction assay; format: functional, cell-based
[2] = Solubility of the compound; format: physicochemical
SH-SY5Y [3] = assay: Neuroprotective activity against serum starvation-induced cell death in human SH-SY5Y cells assessed as increase in cell viability at 20 and 40 uM after 3 days by tetrazolium reduction assay; format: functional, cell-based
SH-SY5Y [4] = assay: Neuroprotective activity against serum starvation-induced cell death in human SH-SY5Y cells assessed as increase in cell […] at 20 and 40 uM after 3 days by tetrazolium reduction assay; format: functional, cell-based

SMILES: c1ccc(-c2cn(-c3ccc4nc(N5CCOCC5)sc4c3)nn2)cc1
- Activity (SH-SY5Y [1]): inactive
- solubility [2]: Insoluble

SMILES: CC(C)n1c(=O)c2ccccc2n1Cc1cn(-c2ccc3nc(N4CCOCC4)sc3c2)nn1
- Activity (SH-SY5Y [3]): Active
- Activity (SH-SY5Y [4]): Active
- solubility ([2]; read-out: solubility): > 40 µM

SMILES: COC(=O)c1cn(-c2ccc3nc(N4CCOCC4)sc3c2)nn1
- Activity (SH-SY5Y [1]): inactive
- solubility [2]: Insoluble
